US6750234B2, “Methods for increasing leptin levels using nicotinic acid compounds” (University of Kentucky Research Foundation, priority 2001, dated 2004)
Where two headings read alike, the source gives them in different places.

Experiments:
leptin [1] = conditions: transgenic mice; cited from earlier work
leptin [2] = conditions: male BALB/C mice, 4 ml/kg/mouse, vs vehicle
Protocol: The experiments described in example 2 were continued, in the experiment described in this example. Specifically, male BALB/C mice were shaved, from the scapulae to tail bases. The subject animals then received topical application of the lauryl nicotinate ester lotion, described in example 2, supra, or myristyl nicotinate ester lotion, in varying concentrations. Controls received vehicle only. The lotion was applied at a dose of 4 ml/kg/mouse.
Serum leptin levels were measured, as described, supra.

leptin [3] = conditions: female apoB/CETP mice
Protocol: Leptin levels in plasma were determined using a commercially available murine leptin radioimmunoassay. The RIA was carried out on fasting (16 h) blood samples obtained from the retroorbital plexus. The blood samples were collected and centrifuged at 2000×g for 15 minutes to secure plasma.

full thickness wounds = conditions: mice, about 6 mm full thickness wounds, topical 20% lotion, 100 μl twice every day for 14 days, vs lotion without ester
Protocol: Mice were inflicted with full thickness wounds of about 6 mm in diameter, under anesthesia (sodium phenobarbital). They then received topical application of a 20% nicotinate ester lotion, every day, for 14 days. The dosing was 100 μl for each application, with two applications every day. As a control, the lotion without the ester was used. Wound diameter was measured every day.

Human adipocytes = conditions: 0.1 mM niacin, 24 hours, vs cultures without niacin
Protocol: Human adipocytes were obtained in accordance with standard methods. In brief, preadipocytes were collected from subcutaneous adipose tissue, following collagenase treatment. The preadipocytes were plated, and allowed to differentiate for 3 weeks, to form adipocytes.
The adipocytes were then incubated, in 0.6 ml of DMEM/F-10 medium, to which 2% bovine serum albumin was added.
After 24 hours, the culture medium was analyzed for leptin, using a commercially available ELISA kit.

Cc1cnc(C(=O)O)c[n+]1[O-] [Acipimox]
plasma leptin levels (leptin [1]): increase plasma leptin levels

CCCCCCCCCCCCOC(=O)c1cccnc1 [lauryl nicotinate ester]
increase in serum leptin levels (leptin [2]; topical 10% lotion): 45%
amount of circulating leptin (plasma) (leptin [3]; topical, 200 mg of 10% (wt/wt) lotion daily for 13 weeks, compared with oral niacin): surpassed it in terms of the amount of circulating leptin
reduction of wound thickness (full thickness wounds): 43%

CCCCCCCCCCCCCCOC(=O)c1cccnc1 [myristyl nicotinate ester]
increase in serum leptin levels (leptin [2]; topical 2% formulation): 57%
increase in serum leptin levels (leptin [2]; topical 5% formulation): 77%

O=C(O)c1cccnc1 [niacin, reference compound]
increase in leptin production (Human adipocytes): 62%
amount of circulating leptin (plasma) (leptin [3]; oral, sodium salt 0.75% in drinking water, approx. 1400 mg/kg, fasting (16 h) blood): did increase the amount of circulating leptin
